Test results as given in patent publication US9748489B2, “Copolymer and organic solar cell comprising same” (LG CHEM, LTD., priority 2013, dated 2017).
Values after ≈ are worked out from the molar mass of the structure shown.

Test: Solubility of each monomer in chlorobenzene at room temperature
Format: physicochemical
Description: The term “solubility of the unit” as used herein means measurement of the solubility in a solution of each unit monomer at room temperature.

Solubility: 5000 µg/mL (≈ 10.9 mM)
SMILES: Brc1ccc(-c2ccc(-c3ccc(Br)s3)c3nsnc23)s1
